From patent US20260345582A1, “PRODRUG FOR ANTI-AGING RELATED DISEASES AND USE METHOD THEREOF” (Beijing SunCell Bio-Medical Co., Ltd., priority 2022, published 2026)

Columns and labels:
[1] = tested on: mouse model of Bleomycin-induced pulmonary fibrosis; experiment: HE pathological changes in the lungs, Bleomycin-induced pulmonary fibrosis; format: in vivo, C57 mice; details: A13 2 mg/kg, A13bGa1 5 mg/kg; for inflammation and consolidation of the mouse lungs (HE pathology): i.p. four weeks, FIG. 5D and Table 1
Description: (§1) A. Modelling of a mouse model of Bleomycin-induced pulmonary fibrosis, and the schematic diagram of treatment. Mice were modelled with Bleomycin administered via tracheal instillation on day 0, and the treatment with intraperitoneal injection of the drug was started on day 4. The drug was administered for 3 consecutive days per week, followed by a 4-day withdrawal, for 4 weeks.
D. Representative results of HE and Masson staining of the pathological sections of lungs taken from different groups of mice after execution. Normal represents the saline tracheal instillation modelling control group; Vehicle represents the vehicle administration control group; A13bGa1 represents the prodrug treatment group; A13 represents the A1331852 treatment group. Scale bar: 500 μm.
All drugs were mixed in 85% physiological saline, 5% DMSO (Sigma, D8418) and 10% Solutol HS 15 (Sigma, 42966), and administered to mice by intraperitoneal (i.p.) injection. To treat the bleomycin-injured young mice, A13 (2 mg/kg), A13bGa1 (5 mg/kg), or an empty vehicle control was administered three consecutive days per week for four weeks. A1331852 (abbreviated as A13) was purchased from MCE.
Bleomycin-Induced Pulmonary Fibrosis
Bleomycin was purchased from Selleck. As previously reported (Bivas-Benita et al., Eur J Pharm Biopharm 61, 214-218 (2005)), a transtracheal injection of bleomycin (2 mg/kg) was performed to the young male C57 mice (8-10 weeks old) to induce lung fibrosis. Drug treatment was initiated four days after modelling, and the drug was administered three consecutive days per week for four consecutive weeks, after which the mice were executed for material collection.
Histopathological Examination
All animals (including those found dead, dying, and euthanised) were autopsied, and the lung tissues were preserved. The lungs were separated, the fat and other tissues were removed, the surface fluid was absorbed using a filter paper, and the whole lungs were weighed (those found dead, dying, and euthanised) for calculation of the lung weight index. The right lung and bronchiole were fixed in 10% neutral buffered formalin solution, embedded in paraffin, sectioned, prepared into slices, and stained with HE for a histopathological and morphological observation of the lung. The degree of the lesions such as the inflammatory cell infiltration in the lung tissue were graded according to a 4-grade classification (slight, mild, moderate, severe) using a standard terminology for diagnosis and classification. The left lung tissue was clipped and stored temporarily below −60′C.

[2] = tested on: mouse model of Bleomycin-induced pulmonary fibrosis; experiment: lung specific gravity index in Bleomycin-induced pulmonary fibrosis; format: in vivo, C57 mice; details: i.p. four weeks; A13 2 mg/kg, A13bGa1 5 mg/kg; FIG. 5C
Description: as §1
C. Comparison of lung specific gravity index calculated for different groups of mice. After completion of drug administration according to the dosing protocol, the mice were executed and the lungs of the mice were taken and weighed to calculate the lung specific gravity index, lung index=the lung weight (g)/the body weight (g)×100%. A13 represents the A1331852 treatment group at a dose of 2 mg/kg; A13bGa1 represents prodrug treatment group at a dose of 5 mg/kg; VEH represents the vehicle treatment control group; and NC represents the saline tracheal instillation modelling control group. Each dot in the panel represents the result of the lung specific gravity index of 1 mouse, n=5 in the saline modelling control group, and n=6 in other groups. The statistical analysis was performed using unpaired T-test, ns indicates no statistical difference; with *p<0.05; and **p<0.01. […]

[3] = liver microsomal metabolic stability, human
Description: (§2) Hepatic Microsomal Metabolic Stability
(§3) A13bGa1 was co-incubated with the mouse, rat, canine, monkey and human […] and the incubation medium at a final drug concentration of 1 μM in the incubation system for 60 minutes. Samples were taken and analyzed at time points 0, 15, 30, 45 and 60 minutes during the incubation. The reaction was terminated by adding an amount of acetonitrile solution containing the internal standard. […] The residual percentage, half-life, intrinsic clearance, amplified clearance, hepatic clearance and hepatic extraction ratio were determined. The entire experiment was performed in triplicate. All data calculations were performed by Microsoft Excel software. Peak areas were detected by extracting the ionic spectrum. The in vitro half-life (t1/2) of the parent compound was detected by fitting the natural logarithm of the percentage elimination of the parent compound linearly to time.
(§4) The in vitro intrinsic clearance (in μL/min/mg protein) was calculated using the following equation: in vitro CLint=kV/N
(§5) The amplified clearance (in mL/min/kg) was calculated using the following equation: Amplified CLint=kV/N×the amplification factor
(§6) The hepatic clearance (in mL/min/kg) was calculated using the following equation: The predicted hepatic CLH=(Q×Fu/RB×the amplified CLint)/(Q+Fu/RB×the amplified CLint) • V=the incubation volume per well (0.2 mL); • N=the total amount of protein (mg) • Q=the hepatic blood flow (mL/min/kg) • Fu=the plasma free rate (assumed to be 1) • RB=the whole blood partition coefficient (assumed to be 1)
(§7) The hepatic uptake rate was calculated using the following equation:
(§8) The hepatic extraction ratio (ER)=(the predicted hepatic CLH)/Q

[4] = liver microsomal metabolic stability, all species; format: in vitro ADME, rat and mouse; details: human, monkey, canine, rat, mouse; Table 4
Description: as §2
The entire experiment was performed in triplicate. All data calculations were performed by Microsoft Excel software. Peak areas were detected by extracting the ionic spectrum.
The in vitro half-life (t1/2) was calculated by slope: in vitro t½=0.693/k

[5] = tested on: HUVEC cells (human umbilical vein endothelial cell line); experiment: in vitro killing of induced senescent HUVEC cells (CCK-8); format: cell-based; details: vascular endothelial-derived, FIG. 3F
Text: Induction of the Cellular Senescence

[6] = liver microsomal metabolic stability, canine
Description: as §2, §3, §4, §5, §6, §7, §8

[7] = liver microsomal metabolic stability, monkey
Description: as §2, §3, §4, §5, §6, §7, §8

[8] = liver microsomal metabolic stability, rat
Description: as §2, §3, §4, §5, §6, §7, §8

Cc1c(-c2ccc(N3CCc4cccc(C(=O)Nc5nc6ccccc6s5)c4C3)nc2C(=O)O)cnn1CC12CC3CC(CC(C3)C1)C2 [Compound A13, 3-[1-(adamantan-1-ylmethyl)-5-methylpyrazol-4-yl]-6-{8-[(1,3-benzothiazol-2-yl)carbamoyl]-3,4-dihydro-1H-isoquinolin-2-yl}pyridine-2-carboxylic acid]
inflammation and consolidation of the mouse lungs (HE pathology) [1]: no improvement
lung specific gravity index (lung weight/body weight×100%) [2]: no improvement in the lung index

Cc1c(-c2ccc(N3CCc4cccc(C(=O)Nc5nc6ccccc6s5)c4C3)nc2C(=O)OCc2ccc(O[C@@H]3O[C@H](CO)[C@H](O)[C@H](O)[C@H]3O)c([N+](=O)[O-])c2)cnn1CC12CC3CC(CC(C3)C1)C2 [Compound A13bGa1]
The hepatic extraction ratio (E) [3]: 0.86
The predicted intrinsic hepatic clearance Clint ([3]; Fu and RB assumed to be 1): 17.90 mL/min/kg
CLint scaled at 1 h, 1 µM ([3]; microsomes): 132 mL/min/kg
half-life at 1 h, 1 µM ([3]; microsomes): 13.1 min
microsomal CLint at 1 h, 1 µM ([3]; microsomes): 106 µL/min/mg
liver microsomal metabolic stability [4]: good moderate metabolic stability
killing of the senescent cells, efficiency and selectivity [5]: highly efficient and selective in killing the senescent cells
The hepatic extraction ratio (E) ([6]; canine): 0.70
The intrinsic clearance in vitro Clint ([6]; canine, 1 μM, 60 min): 29.31 μL/min/mg protein
The predicted intrinsic hepatic clearance Clint ([6]; canine, Fu and RB assumed to be 1): 21.72 mL/min/kg
CLint scaled at 1 µM ([6]; dog, microsomes): 73.1 mL/min/kg
half-life at 1 h, 1 µM ([6]; dog, microsomes): 47.3 min
The hepatic extraction ratio (E) [7]: 0.69
The intrinsic clearance in vitro Clint ([7]; 1 μM, 60 min): 65.35 μL/min/mg protein
The predicted intrinsic hepatic clearance Clint ([7]; Fu and RB assumed to be 1): 30.18 mL/min/kg
CLint scaled at 1 µM ([7]; microsomes): 98 mL/min/kg
half-life at 1 h, 1 µM ([7]; microsomes): 21.2 min
The hepatic extraction ratio (E) [8]: 0.34
The intrinsic clearance in vitro Clint ([8]; 1 μM, 60 min): 15.81 μL/min/mg protein
The predicted intrinsic hepatic clearance Clint ([8]; Fu and RB assumed to be 1): 18.72 mL/min/kg
CLint scaled at 1 µM ([8]; microsomes): 28.3 mL/min/kg
half-life at 1 h, 1 µM ([8]; microsomes): 87.7 min
inflammation and consolidation of the mouse lungs (HE pathology) [1]: significant improvement
Bleeding, alveolar/interstitial: mild (++) ([1]; of 6 animals): 0 number of animals
Bleeding, alveolar/interstitial: moderate (+++) ([1]; of 6 animals): 0 number of animals
Bleeding, alveolar/interstitial: negative (−) ([1]; of 6 animals): 3 number of animals
Bleeding, alveolar/interstitial: slight (+) ([1]; of 6 animals): 3 number of animals
Exudative oedema, alveolar: mild (++) ([1]; of 6 animals): 2 number of animals
Exudative oedema, alveolar: moderate (+++) ([1]; of 6 animals): 1 number of animals
Exudative oedema, alveolar: negative (−) ([1]; of 6 animals): 2 number of animals
Exudative oedema, alveolar: severe (++++) ([1]; of 6 animals): 0 number of animals
Exudative oedema, alveolar: slight (+) ([1]; of 6 animals): 1 number of animals
The infiltration of the inflammatory cells: mild (++) ([1]; of 6 animals): 0 number of animals
The infiltration of the inflammatory cells: moderate (+++) ([1]; of 6 animals): 1 number of animals
The infiltration of the inflammatory cells: negative (−) ([1]; of 6 animals): 4 number of animals
The infiltration of the inflammatory cells: slight (+) ([1]; of 6 animals): 1 number of animals
Thickening and consolidation of the pulmonary septum: mild (++) ([1]; of 6 animals): 5 number of animals
Thickening and consolidation of the pulmonary septum: moderate (+++) ([1]; of 6 animals): 0 number of animals
Thickening and consolidation of the pulmonary septum: negative (−) ([1]; of 6 animals): 1 number of animals
Thickening and consolidation of the pulmonary septum: severe (++++) ([1]; of 6 animals): 0 number of animals
Thickening and consolidation of the pulmonary septum: slight (+) ([1]; of 6 animals): 0 number of animals
lung specific gravity index (lung weight/body weight×100%) [2]: recovered to the normal level
